Data from article PMC10088252.
Read-outs that look alike come from different tables or passages of the source.

Method: Dose adjustment was allowed according to the severity of toxicity [Supplementary Table 1].
The primary endpoints were safety, ORR and DCR assessed by investigators. […] AEs referred to treatment-emergent adverse events (TEAEs) and TRAEs were assessed by investigators. Serious adverse events (SAEs) referred to AEs meeting at least one of the following criteria: event leading to death; life-threatening event; event requiring hospitalization or extension of hospital stay; event leading to persistent or evident disability or dysfunction; event leading to congenital malformation or birth defect or event which might lead to injury or that need medical treatment to avoid the above mentioned important medical events.

O=C(Nc1ccc(Oc2ccnc3c2CCN3)c(F)c1)c1c[nH]cc(-c2ccc(F)cc2)c1=O
TRAE Rash maculo-papular, any grade (600 mg QD (n=10)): 0 n (%) | TRAE Rash maculo-papular, grade 3-4 (600 mg QD (n=10)): 0 n (%) | TRAE Sinus tachycardia, any grade (600 mg QD (n=10)): 1 (10.0) n (%) | TRAE Sinus tachycardia, grade 3-4 (600 mg QD (n=10)): 0 n (%) | TRAE Skin fissures, any grade (600 mg QD (n=10)): 1 (10.0) n (%) | TRAE Skin fissures, grade 3-4 (600 mg QD (n=10)): 1 (10.0) n (%) | TRAE Supraventricular extrasystoles, any grade (600 mg QD (n=10)): 1 (10.0) n (%) | TRAE Supraventricular extrasystoles, grade 3-4 (600 mg QD (n=10)): 0 n (%) | TRAE Thrombocytopenia, any grade (600 mg QD (n=10)): 1 (10.0) n (%) | TRAE Thrombocytopenia, grade 3-4 (600 mg QD (n=10)): 1 (10.0) n (%) | TRAE Upper respiratory tract infection, any grade (600 mg QD (n=10)): 0 n (%) | TRAE Upper respiratory tract infection, grade 3-4 (600 mg QD (n=10)): 0 n (%) | TRAE Urinary retention, any grade (600 mg QD (n=10)): 1 (10.0) n (%) | TRAE Urinary retention, grade 3-4 (600 mg QD (n=10)): 0 n (%) | TRAE Urinary tract infection, any grade (600 mg QD (n=10)): 2 (20.0) n (%) | TRAE Urinary tract infection, grade 3-4 (600 mg QD (n=10)): 0 n (%) | TRAE Ventricular arrhythmia, any grade (600 mg QD (n=10)): 1 (10.0) n (%) | TRAE Ventricular arrhythmia, grade 3-4 (600 mg QD (n=10)): 0 n (%) | TRAE Ventricular extrasystoles, any grade (600 mg QD (n=10)): 0 n (%) | TRAE Ventricular extrasystoles, grade 3-4 (600 mg QD (n=10)): 0 n (%) | TRAE Vomiting, any grade (600 mg QD (n=10)): 0 n (%) | TRAE Vomiting, grade 3-4 (600 mg QD (n=10)): 0 n (%) | TRAE Weight loss, any grade (600 mg QD (n=10)): 1 (10.0) n (%) | TRAE Weight loss, grade 3-4 (600 mg QD (n=10)): 0 n (%) | SAEs, patients (Total (n=38)): 13.2% | TRAE Accessory nerve disorder, any grade (Total (n=38)): 1 (2.6) n (%) | TRAE Accessory nerve disorder, grade 3-4 (Total (n=38)): 0 n (%) | TRAE Activated partial thromboplastin time prolonged, any grade (Total (n=38)): 2 (5.3) n (%) | TRAE Activated partial thromboplastin time prolonged, grade 3-4 (Total (n=38)): 0 n (%) | TRAE Anaemia, any grade (Total (n=38)): 2 (5.3) n (%) | TRAE Anaemia, grade 3-4 (Total (n=38)): 1 (2.6) n (%) | TRAE Anaesthesia oral, any grade (Total (n=38)): 1 (2.6) n (%) | TRAE Anaesthesia oral, grade 3-4 (Total (n=38)): 0 n (%) | TRAE Arrhythmia, any grade (Total (n=38)): 1 (2.6) n (%) | TRAE Arrhythmia, grade 3-4 (Total (n=38)): 0 n (%) | TRAE Arthralgia, any grade (Total (n=38)): 1 (2.6) n (%) | TRAE Arthralgia, grade 3-4 (Total (n=38)): 0 n (%) | TRAE Asthenia, any grade (Total (n=38)): 5 (13.2) n (%) | TRAE Asthenia, grade 3-4 (Total (n=38)): 1 (2.6) n (%) | TRAE Blister, any grade (Total (n=38)): 1 (2.6) n (%) | TRAE Blister, grade 3-4 (Total (n=38)): 0 n (%) | TRAE Chest discomfort, any grade (Total (n=38)): 1 (2.6) n (%) | TRAE Chest discomfort, grade 3-4 (Total (n=38)): 0 n (%) | TRAE Chronic kidney disease, any grade (Total (n=38)): 1 (2.6) n (%) | TRAE Chronic kidney disease, grade 3-4 (Total (n=38)): 0 n (%) | TRAE Constipation, any grade (Total (n=38)): 8 (21.1) n (%) | TRAE Constipation, grade 3-4 (Total (n=38)): 0 n (%) | TRAE Cough, any grade (Total (n=38)): 1 (2.6) n (%) | TRAE Cough, grade 3-4 (Total (n=38)): 0 n (%) | TRAE Decreased Ccr, any grade (Total (n=38)): 6 (15.8) n (%) | TRAE Decreased Ccr, grade 3-4 (Total (n=38)): 0 n (%) | TRAE Decreased appetite, any grade (Total (n=38)): 5 (13.2) n (%) | TRAE Decreased appetite, grade 3-4 (Total (n=38)): 1 (2.6) n (%) | TRAE Diarrhoea, any grade (Total (n=38)): 3 (7.9) n (%) | TRAE Diarrhoea, grade 3-4 (Total (n=38)): 0 n (%) | TRAE Dizziness, any grade (Total (n=38)): 1 (2.6) n (%) | TRAE Dizziness, grade 3-4 (Total (n=38)): 0 n (%) | TRAE Dry mouth, any grade (Total (n=38)): 3 (7.9) n (%) | TRAE Dry mouth, grade 3-4 (Total (n=38)): 0 n (%) | TRAE Dysgeusia, any grade (Total (n=38)): 9 (23.7) n (%) | TRAE Dysgeusia, grade 3-4 (Total (n=38)): 1 (2.6) n (%) | TRAE Dyskinesia, any grade (Total (n=38)): 1 (2.6) n (%) | TRAE Dyskinesia, grade 3-4 (Total (n=38)): 1 (2.6) n (%) | TRAE Dysphonia, any grade (Total (n=38)): 1 (2.6) n (%) | TRAE Dysphonia, grade 3-4 (Total (n=38)): 0 n (%) | TRAE Dyspnoea, any grade (Total (n=38)): 1 (2.6) n (%) | TRAE Dyspnoea, grade 3-4 (Total (n=38)): 1 (2.6) n (%) | TRAE Electrocardiogram QT prolonged, any grade (Total (n=38)): 1 (2.6) n (%) | TRAE Electrocardiogram QT prolonged, grade 3-4 (Total (n=38)): 0 n (%) | TRAE Elevated ALT, any grade (Total (n=38)): 14 (36.8) n (%) | TRAE Elevated ALT, grade 3-4 (Total (n=38)): 0 n (%) | TRAE Elevated AST, any grade (Total (n=38)): 11 (28.9) n (%) | TRAE Elevated AST, grade 3-4 (Total (n=38)): 0 n (%) | TRAE Elevated D dimer, any grade (Total (n=38)): 1 (2.6) n (%) | TRAE Elevated D dimer, grade 3-4 (Total (n=38)): 0 n (%) | TRAE Elevated GGT, any grade (Total (n=38)): 1 (2.6) n (%) | TRAE Elevated GGT, grade 3-4 (Total (n=38)): 0 n (%) | TRAE Elevated LDH, any grade (Total (n=38)): 1 (2.6) n (%) | TRAE Elevated LDH, grade 3-4 (Total (n=38)): 0 n (%) | TRAE Elevated alpha-HBDH, any grade (Total (n=38)): 1 (2.6) n (%) | TRAE Elevated alpha-HBDH, grade 3-4 (Total (n=38)): 0 n (%) | TRAE Elevated bilirubin, any grade (Total (n=38)): 3 (7.9) n (%) | TRAE Elevated bilirubin, grade 3-4 (Total (n=38)): 0 n (%) | TRAE Elevated blood creatinine, any grade (Total (n=38)): 7 (18.4) n (%) | TRAE Elevated blood creatinine, grade 3-4 (Total (n=38)): 0 n (%) | TRAE Elevated creatine phosphokinase, any grade (Total (n=38)): 3 (7.9) n (%) | TRAE Elevated creatine phosphokinase, grade 3-4 (Total (n=38)): 0 n (%) | TRAE Elevated serum urea, any grade (Total (n=38)): 1 (2.6) n (%) | TRAE Elevated serum urea, grade 3-4 (Total (n=38)): 0 n (%) | TRAE Elevated troponin, any grade (Total (n=38)): 1 (2.6) n (%) | TRAE Elevated troponin, grade 3-4 (Total (n=38)): 0 n (%) | TRAE Genital rash, any grade (Total (n=38)): 1 (2.6) n (%) | TRAE Genital rash, grade 3-4 (Total (n=38)): 0 n (%) | TRAE Haematuria, any grade (Total (n=38)): 3 (7.9) n (%) | TRAE Haematuria, grade 3-4 (Total (n=38)): 0 n (%) | TRAE Headache, any grade (Total (n=38)): 1 (2.6) n (%) | TRAE Headache, grade 3-4 (Total (n=38)): 0 n (%) | TRAE Hyperhidrosis, any grade (Total (n=38)): 1 (2.6) n (%) | TRAE Hyperhidrosis, grade 3-4 (Total (n=38)): 0 n (%) | TRAE Hyperlipidaemia, any grade (Total (n=38)): 1 (2.6) n (%) | TRAE Hyperlipidaemia, grade 3-4 (Total (n=38)): 0 n (%) | TRAE Hypertension, any grade (Total (n=38)): 4 (10.5) n (%) | TRAE Hypertension, grade 3-4 (Total (n=38)): 1 (2.6) n (%) | TRAE Hypoaesthesia oral, any grade (Total (n=38)): 2 (5.3) n (%) | TRAE Hypoaesthesia oral, grade 3-4 (Total (n=38)): 0 n (%) | TRAE Hypocalcaemia, any grade (Total (n=38)): 1 (2.6) n (%) | TRAE Hypocalcaemia, grade 3-4 (Total (n=38)): 0 n (%) | TRAE Hypotension, any grade (Total (n=38)): 1 (2.6) n (%) | TRAE Hypotension, grade 3-4 (Total (n=38)): 0 n (%) | TRAE Insomnia, any grade (Total (n=38)): 1 (2.6) n (%) | TRAE Insomnia, grade 3-4 (Total (n=38)): 0 n (%) | TRAE Leukopenia, any grade (Total (n=38)): 3 (7.9) n (%) | TRAE Leukopenia, grade 3-4 (Total (n=38)): 0 n (%) | TRAE Nausea, any grade (Total (n=38)): 3 (7.9) n (%) | TRAE Nausea, grade 3-4 (Total (n=38)): 0 n (%) | TRAE Neuritis, any grade (Total (n=38)): 2 (5.3) n (%) | TRAE Neuritis, grade 3-4 (Total (n=38)): 0 n (%) | TRAE Occult blood, any grade (Total (n=38)): 2 (5.3) n (%) | TRAE Occult blood, grade 3-4 (Total (n=38)): 0 n (%) | TRAE Oedema peripheral, any grade (Total (n=38)): 2 (5.3) n (%) | TRAE Oedema peripheral, grade 3-4 (Total (n=38)): 0 n (%) | TRAE Onycholysis, any grade (Total (n=38)): 1 (2.6) n (%) | TRAE Onycholysis, grade 3-4 (Total (n=38)): 0 n (%) | TRAE Oropharyngeal pain, any grade (Total (n=38)): 1 (2.6) n (%) | TRAE Oropharyngeal pain, grade 3-4 (Total (n=38)): 1 (2.6) n (%) | TRAE PPE (Total (n=38)): 23.7% | TRAE PPE, any grade (Total (n=38)): 9 (23.7) n (%) | TRAE PPE, grade 3-4 (Total (n=38)): 4 (10.5) n (%) | TRAE Paraesthesia, any grade (Total (n=38)): 1 (2.6) n (%) | TRAE Paraesthesia, grade 3-4 (Total (n=38)): 0 n (%) | TRAE Proteinuria, any grade (Total (n=38)): 4 (10.5) n (%) | TRAE Proteinuria, grade 3-4 (Total (n=38)): 1 (2.6) n (%) | TRAE Pruritus, any grade (Total (n=38)): 1 (2.6) n (%) | TRAE Pruritus, grade 3-4 (Total (n=38)): 0 n (%) | TRAE Rash maculo-papular, any grade (Total (n=38)): 1 (2.6) n (%) | TRAE Rash maculo-papular, grade 3-4 (Total (n=38)): 0 n (%) | TRAE Sinus tachycardia, any grade (Total (n=38)): 1 (2.6) n (%) | TRAE Sinus tachycardia, grade 3-4 (Total (n=38)): 0 n (%) | TRAE Skin fissures, any grade (Total (n=38)): 1 (2.6) n (%) | TRAE Skin fissures, grade 3-4 (Total (n=38)): 1 (2.6) n (%) | TRAE Supraventricular extrasystoles, any grade (Total (n=38)): 1 (2.6) n (%) | TRAE Supraventricular extrasystoles, grade 3-4 (Total (n=38)): 0 n (%) | TRAE Thrombocytopenia, any grade (Total (n=38)): 3 (7.9) n (%) | TRAE Thrombocytopenia, grade 3-4 (Total (n=38)): 2 (5.3) n (%) | TRAE Upper respiratory tract infection, any grade (Total (n=38)): 1 (2.6) n (%) | TRAE Upper respiratory tract infection, grade 3-4 (Total (n=38)): 0 n (%) | TRAE Urinary retention, any grade (Total (n=38)): 1 (2.6) n (%) | TRAE Urinary retention, grade 3-4 (Total (n=38)): 0 n (%) | TRAE Urinary tract infection, any grade (Total (n=38)): 3 (7.9) n (%) | TRAE Urinary tract infection, grade 3-4 (Total (n=38)): 0 n (%) | TRAE Ventricular arrhythmia, any grade (Total (n=38)): 3 (7.9) n (%) | TRAE Ventricular arrhythmia, grade 3-4 (Total (n=38)): 0 n (%) | TRAE Ventricular extrasystoles, any grade (Total (n=38)): 1 (2.6) n (%) | TRAE Ventricular extrasystoles, grade 3-4 (Total (n=38)): 0 n (%) | TRAE Vomiting, any grade (Total (n=38)): 2 (5.3) n (%) | TRAE Vomiting, grade 3-4 (Total (n=38)): 0 n (%) | TRAE Weight loss, any grade (Total (n=38)): 1 (2.6) n (%) | TRAE Weight loss, grade 3-4 (Total (n=38)): 0 n (%) | TRAE constipation (Total (n=38)): 21.1% | TRAE dysgeusia (Total (n=38)): 23.7% | TRAE elevated ALT (Total (n=38)): 36.8% | TRAE elevated AST (Total (n=38)): 28.9% | grade ≥ 3 TEAEs, patients (Total (n=38)): 36.8% | grade ≥ 3 TRAE PPE (Total (n=38)): 10.5% | grade ≥ 3 TRAEs, patients (Total (n=38)): 28.9% | patients with at least one TEAE (Total (n=38)): All the 38 patients | treatment-related deaths (Total (n=38)): No treatment-related deaths occurred | TRAE leading to treatment discontinuation, patients (Total (n=38), grade 3 PPE in 400 mg BID cohort): 2.6% | treatment-related SAE, patients (Total (n=38), thrombocytopenia in 600 mg QD cohort): 2.6%
